In PubChem BioAssay (NCI):
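All cell lines were grown in 96-well plates and treated with compound for 48 hours. The concentration for 50% growth inhibition is given as GI50. TGI is the concentration that stops growth completely.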

Tests used:
Test in all cases: NCI-60 cell line screen, 48 h
SR leukemia = tested on: SR leukemia
LOX IMVI melanoma = tested on: LOX IMVI melanoma
RPMI-8226 leukemia = tested on: RPMI-8226 leukemia
OVCAR-8 ovarian = tested on: OVCAR-8 ovarian
UO-31 renal = tested on: UO-31 renal
MDA-MB-231 breast = tested on: MDA-MB-231 breast
NCI/ADR-RES ovarian = tested on: NCI/ADR-RES ovarian
MDA-N = tested on: MDA-N
A498 renal = tested on: A498 renal
SF-539 CNS = tested on: SF-539 CNS

SMILES	TGI (SR leukemia) [µM]	TGI (LOX IMVI melanoma) [µM]	TGI (RPMI-8226 leukemia) [µM]	TGI (OVCAR-8 ovarian) [µM]	TGI (UO-31 renal) [µM]	TGI (MDA-MB-231 breast) [µM]	TGI (NCI/ADR-RES ovarian) [µM]	TGI (MDA-N) [µM]	TGI (A498 renal) [µM]	TGI (SF-539 CNS) [µM]	GI50 (SR leukemia) [µM]	GI50 (LOX IMVI melanoma) [µM]	GI50 (RPMI-8226 leukemia) [µM]	GI50 (OVCAR-8 ovarian) [µM]	GI50 (UO-31 renal) [µM]	GI50 (MDA-MB-231 breast) [µM]	GI50 (NCI/ADR-RES ovarian) [µM]	GI50 (SF-539 CNS) [µM]	GI50 (A498 renal) [µM]
O=C1c2ccccc2C(=O)N1CC(O)COc1cccc2ccccc12 (stereo not given)	> 100	> 100	> 100	> 100	> 100	> 100	> 100	> 100	> 100										
NC(=S)N/N=C\c1nccc2ccccc12	0.731	11.8	4.72	0.925	3.63	35.7	1.13	> 100	2.39	0.455									
Cc1ccc(S(=O)(=O)N2CCCSCC2)cc1	> 100	> 100		> 100	> 100	> 100	> 100	> 100	> 100										
CCCC(=O)Nc1cc(/C=C/C(=O)N2CC(CCl)c3c2cc(O)c2[nH]cc(C)c32)n(C)c1 (stereo not given)	> 0.14	0.0163	0.00154	0.000532		0.0344	0.00372			< 2.5e-05									
Oc1ccc(-c2nc3ccc(Cl)cc3s2)cc1	51.1	45.9	47.3	39	27.8	45.5	57.1	37.6	35.2	34.7									
CC1(C)OCC=CCO1		> 100	> 100	> 100	> 100		> 100	> 100		> 100									
COc1cc2c(cc1OCCCC(=O)Nc1ccc3ccc4cccc5ccc1c3c45)N=C[C@@H]1CCCN1C2=O		> 100	0.238	< 0.0245		0.051	0.262		< 0.0509	< 0.01	< 0.01	0.0143	0.042	< 0.0134	< 0.0158	0.0135	0.0543	< 0.01	< 0.0243
CC(=O)c1cc2ccccc2oc1=O	> 100	> 100	> 100	> 100	> 100	> 100	> 100	> 100	> 100	> 100									
COc1cc(C(O)(CC#N)c2cc3c(cc2Br)OCO3)cc(OC)c1OC (stereo not given)		> 100	> 100	> 100	> 100	54.5	> 100	> 100		34.9									
O=C1C(Cl)=C(Nc2ccc(S(=O)(=O)Nc3ccccn3)cc2)C(=O)c2ccccc21	16.2	4.59	15.4	15.9	29	22	> 40.9	13.9	45.1	10.3									
CC1=C(C)Cc2c(O)ccc(O)c2C1	38.8	46.7	27.2	32.1	30.6	44.1	> 100	30.7	> 100	35.1									
